pIC50: −log10 of the molar value.
What was measured:
[1] = target: T1, Stp1/Stp4/Stp3 subcomplex (Mycosarcoma maydis, UniProt A0A0D1C5E3+A0A0D1CU07+A0A0D1EAN2); test: Beta-Glo confirmatory assay (β-galactosidase expression) in NL73; assay type: cell-based, U. maydis; settings: NL73 strain, Table 5; read-out: B-glo IC50
T1 sequence (A0A0D1CU07 29-515): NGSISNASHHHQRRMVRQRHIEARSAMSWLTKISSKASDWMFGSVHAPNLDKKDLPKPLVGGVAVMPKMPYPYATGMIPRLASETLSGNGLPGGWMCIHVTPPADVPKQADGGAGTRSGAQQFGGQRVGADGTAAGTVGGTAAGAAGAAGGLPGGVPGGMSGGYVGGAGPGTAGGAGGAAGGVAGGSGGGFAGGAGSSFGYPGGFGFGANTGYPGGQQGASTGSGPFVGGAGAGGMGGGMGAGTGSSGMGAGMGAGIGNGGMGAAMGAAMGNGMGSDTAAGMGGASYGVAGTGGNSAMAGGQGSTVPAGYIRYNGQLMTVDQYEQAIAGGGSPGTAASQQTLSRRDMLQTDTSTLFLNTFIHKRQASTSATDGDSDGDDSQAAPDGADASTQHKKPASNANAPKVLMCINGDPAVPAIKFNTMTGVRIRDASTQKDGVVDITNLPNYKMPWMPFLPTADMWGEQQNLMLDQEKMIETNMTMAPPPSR
T1 sequence (A0A0D1C5E3 24-129): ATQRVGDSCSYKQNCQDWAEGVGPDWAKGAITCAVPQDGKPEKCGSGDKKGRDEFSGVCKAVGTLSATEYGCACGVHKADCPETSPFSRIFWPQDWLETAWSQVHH
T1 sequence (A0A0D1EAN2 25-327): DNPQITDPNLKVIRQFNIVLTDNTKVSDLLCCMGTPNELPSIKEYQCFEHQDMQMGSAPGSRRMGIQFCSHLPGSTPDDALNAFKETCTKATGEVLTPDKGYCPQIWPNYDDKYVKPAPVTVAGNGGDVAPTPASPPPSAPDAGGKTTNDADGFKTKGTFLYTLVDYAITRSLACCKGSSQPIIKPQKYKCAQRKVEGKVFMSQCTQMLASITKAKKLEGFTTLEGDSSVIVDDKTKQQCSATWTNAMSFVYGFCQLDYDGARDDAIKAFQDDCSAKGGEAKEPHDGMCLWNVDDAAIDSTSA
Description: This system allows luminescence-based quantification of β-galactosidase expression in cells which serves as a readout for promoter activation by interacting complex members Stp1, Stp3 and Stp4. Overnight cultures of NL73 and NL70 strains were harvested as described above. Dilution series of compound stock solution were pre-dispensed into black 384-well assay plates (Corning 4513) using Echo520 Nanoliter dispenser starting from 10 µM with 3-fold dilution over 8 steps. In the viability setup, 15 µl of NL73 cell suspension were dispensed into the assay plates using Multidrop Combi. One column of the assay plate was filled with 15 µl of NL70 cell suspension. In the toxicity setup, 15 µl of NL70 cell suspension in low stringency medium were dispensed into the assay plates with one column being filled with 15 µl of NL70 cell suspension in high stringency medium. Plates were sealed with Breathe-Easy sealing membrane, lidded and incubated in a humid chamber over night at 30°C and 140 rpm in an Infors HT Multitron Pro. After approximately 19 h, plates were centrifuged for 1 min at 500 rpm. 4 µl of Beta-Glo assay solution were added using Multidrop Combi. The plates were sealed again and incubated for 2.5 h at room temperature, unlidded. Luminescence readout was determined on a Spectramax Paradigm detection platform for 0.2 s. Dose response data was analysed with Quattro Software Suite.

[2] = target: T1, Stp1/Stp4/Stp3 subcomplex; test: Alamar Blue viability assay in S. cerevisiae 2-hybrid strain NL73 (viability depends on Stp complex formation); assay type: cell-based, U. maydis; settings: for activity in the Alamar Blue assay with NL73: result in words
From the text: To develop a screening platform based on Stp complex formation, a Saccharomyces cerevisiae 2-hybrid system was used. […] After co-transformation, reporter gene transcription is activated only if the two fusion proteins interact in the yeast nucleus. Moreover, the S. cerevisiae strain AH109 harbours the reporter genes ADE2 and HIS3, which encode for two enzymes that are crucial for adenine (Ade) and histidine (His) biosynthesis and thereby enable nutritional selection as a read-out for the interaction between proteins. In the following experiments, growth on high-stringency synthetic defined (SD) medium (SD -Leu -Trp -Ade -His) was used to identify if the complex members interact between them causing expression of ADE2 and HIS3. Additionally, strains were also grown on low-stringency medium (SD -Leu -Trp) to confirm their viability. […] All experiments were done with three independent transformants to exclude false positives due to spontaneous mutations.
The S. cerevisiae strain AH109 from Clontech (Saint-Germain-en-Laye, France) is auxotrophic for tryptophan, leucine, adenine and histidine. In addition, lacz is under control of the MEL1 UAS to be used as readout for quantitative β-galactosidase assays.
The resulting test strain NL73 (AD-Stp4/BD-Stp1/myc-Stp3) expresses the Stp1/Stp4/Stp3 subcomplex. NL73 carries the following three plasmids: pGBKT7-stp1: pGBKT7 vector expressing proteins fused to the GAL4 DNA binding domain (DNA-BD). pGBKT7 also contains the T7 promoter, a c-Myc epitope tag, and a MCS. The vector carries a Kanamycin resistance gene (Kanr) for selection in E. coli and the TRP1 nutritional marker for selection in yeast. pGAD-stp4: pGADT7 vector expressing proteins fused to a GAL4 activation domain (AD). The GAL4 AD fusion contains an N-terminal nuclear localization signal that targets the protein to the yeast nucleus, and a HA Tag, located between the GAL4 AD and the protein of interest. The vector carries an ampicillin resistance gene (Ampr) for selection in E. coli and a LEU2 nutritional marker for selection in yeast. pYEA-stp3-myc: pYEA vector expressing proteins under the control of the phosphoglycerate kinase promoter. The vector carries an ampicillin resistance gene (Ampr) for selection in E. coli and an ADE2 nutritional marker for selection in yeast. As control strain, NL70 containing empty vectors was generated (AH109Δabc9 pGAD::LEU2 pGBK::TRP1 pYEA::ADE2).
After that, 25 µl of NL73 cell suspension were dispensed into the assay plates using Multidrop Combi (Thermofisher Scientific) giving a final screening concentration of 10 µM. One column of the assay plate was filled with 25 µl of NL70 control strain cell suspension as negative control. Plates were sealed with Breathe-Easy sealing membrane (Sigma, Z380059), lidded and incubated in a humid chamber over night at 30°C and 140 rpm in an HT Multitron Pro (Infors). […] For the viability assay, the alamar Blue HS Cell Viability reagent (Invitrogen, #A50101) was pre-diluted using an equal amount of dVE-H2O and 5 µl of diluted Alamar Blue were added to the screening plates using Multidrop Combi. The plates were sealed again and incubated for 4 h at room temperature, unlidded. […] Screening data was normalized to DMSO-treated NL73 cells (that received DMSO in the same concentration as in samples where compounds dissolved in DMSO were added) being 100% and DMSO-treated NL70 cells representing 0% viability and analyzed with Quattro Software Suite (Quattro Research GmbH).

[3] = NL73 strain, Table 5, read-out: A-blue IC50

Row | Structure (SMILES) | pIC50 [1] | pIC50 [2, 3] | activity in the Alamar Blue assay with NL73 [2] | pIC50 ([2]; read-out: IC50 in the Alamar Blue viability assay of NL73) | pIC50 ([2]; inhibitory activity on NL73 viability, Table 6, read-out: IC50)
1 | Cc1ccc(-c2c(-c3ccc(C)cc3)[n+]([O-])c3ccccn23)cc1 [Compound 1-A] | 6.12 | 6.85 | nanomolar potency |  | 
2 | CC(C)n1ncc2cc(NS(=O)(=O)c3cc(F)ccc3F)cnc21 [Compound 1-B] |  |  |  | 5.60 | 
3 | Cc1ccc(CSc2nc(=O)n(C3CCCC3)c3c2CCC3)cc1 [Compound 1-C] |  |  | active in the nanomolar range |  | 6.17
4 | [O-][n+]1c(-c2ccc(C(F)(F)F)cc2)c(-c2ccc(C(F)(F)F)cc2)n2ccccc21 [Compound 2-A] | 6.64 | 7.70 |  |  | 
5 | O=[N+]([O-])c1ccc(-c2c(-c3ccccc3)n3ccccc3[n+]2[O-])cc1 [Compound 3-A] | 6.07 | 6.60 |  |  | 
